Results published in patent US12115152B2, “Pan-RAF kinase inhibitor and use thereof” (HEFEI INSTITUTES OF PHYSICAL SCIENCE, CHINESE ACADEMY OF …, priority 2019, dated 2024).

How the values were obtained:
[1] = Effect on proliferation of cells, Cell Titer-Glo, 72 hours; format: cell-based; details: Mus musculus, BaF3 cells
Method in brief: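 Cells were incubated 72 h with ten compound concentrations from 0.000508 μM to 10 μM. Viable cell number was measured by ATP quantification with Cell Titer-Glo, and GI50 values were determined.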

[2] = tested on: Calu-6 transplanted tumor nude mice; assay: Toxicity in Calu-6 cell transplanted tumor mouse model; details: Calu-6 cell transplanted tumor model, oral daily; Compound 16 50, 100, 200 mg/kg; Comparative Compound 1 100 mg/kg

Row | Compound | GI50 [1] [µM] | toxicity [2]
1 | Cc1ccc(NC(=O)c2cccc(C(F)(F)F)c2)cc1-n1cc(-c2cncc(N3CCOCC3)c2)cn1 [Example 16, N-(4-methyl-3-(4-(5-morpholinopyrid-3-yl)-1H-pyrazol-1-yl)phenyl)-3-(trifluoromethyl)benzamide] | > 10 | did not exhibit any toxicity
2 | Cc1ccc(NC(=O)c2cccc(C(F)(F)F)c2)cc1-n1cc(-c2cccnc2)cn1 [compound 1, 3-trifluoromethyl-N-(4-methyl-3-(4-(pyrid-3-yl)-1H-pyrazol-1-yl)phenyl)benzamide, reference compound] | 3.3 | very strong toxicity as all mice died on Day 8
